Active and inactive are the calls of the source. No cut-off for these calls is given here.
Key:
[1] = molecular target: T1, Protein cereblon/Signal transducer and activator of transcription 3 (Mus musculus) (UniProt P42227+Q8C7D2); test: In-vivo PROTAC activity at STAT3/CRBN in female CB17 SCID mouse assessed as reduction STAT3 level liver at 10 mg/kg, iv measured at 24 hrs by Western blot analysis; format: functional, organism-based; parameters: scale not given: the % may be the effect or the level left
[2] = molecular target: T1, Protein cereblon/Signal transducer and activator of transcription 3 (Mus musculus); test: In-vivo PROTAC activity at STAT3/CRBN in female CB17 SCID mouse assessed as reduction STAT3 level liver at 10 mg/kg, iv measured at 48 hrs by Western blot analysis; format: functional, organism-based; parameters: scale not given: the % may be the effect or the level left
[3] = Cmax in ICR mouse at 5 mg/kg, iv; format: ADME, organism-based; settings: in vivo
[4] = AUC (0 to t) in ICR mouse at 5 mg/kg, iv; format: ADME, organism-based; settings: in vivo
[5] = Apparent volume of distribution in ICR mouse at 5 mg/kg, iv; format: ADME, organism-based; settings: in vivo, read-out: Vz
[6] = Clearance in ICR mouse at 5 mg/kg, iv; format: ADME, organism-based; settings: in vivo
[7] = Cmax in Sprague-Dawley rat at 5 mg/kg, iv; format: ADME, organism-based; settings: in vivo
[8] = AUC (0 to t) in Sprague-Dawley rat at 5 mg/kg, iv; format: ADME, organism-based; settings: in vivo
[9] = Apparent volume of distribution in Sprague-Dawley rat at 5 mg/kg, iv; format: ADME, organism-based; settings: in vivo, read-out: Vz
[10] = AUC (0 to t) in Beagle dog at 1 mg/kg, iv; format: ADME, organism-based, Canis lupus familiaris; settings: in vivo
[11] = Apparent volume of distribution in Beagle dog at 1 mg/kg, iv; format: ADME, organism-based, Canis lupus familiaris; settings: in vivo, read-out: Vz
[12] = molecular target: T2, Protein cereblon/Signal transducer and activator of transcription 4 (Homo sapiens, UniProt Q96SW2+Q14765); test: PROTAC activity at STAT4/CRBN in human PBMC cells assessed as reduction in STAT4 level incubated for 20 hrs by Western blot analysis; format: cell-based
[13] = molecular target: T3, Protein cereblon/Signal transducer and activator of transcription 2 (Homo sapiens) (UniProt Q96SW2+P52630); test: PROTAC activity at STAT2/CRBN in human PBMC cells assessed as reduction in STAT2 level upto 40 uM incubated for 20 hrs by Western blot analysis; format: cell-based
[14] = molecular target: Protein cereblon/Signal transducer and activator of transcription 6 (Homo sapiens) (UniProt P42226+Q96SW2); test: PROTAC activity at STAT6/CRBN in human PBMC cells assessed as reduction in STAT6 level upto 40 uM incubated for 20 hrs by Western blot analysis; format: cell-based
[15] = Apparent permeability across apical to basolateral side in human Caco-2 cells; format: ADME, cell-based
[16] = molecular target: hERG (KCNH2) (Homo sapiens, UniProt Q12809); test: Inhibition of hERG at 3 uM relative to control; format: toxicity
[17] = Stability in rat Hepatocyte assessed as half life; format: ADME, cell-based; settings: hepatocytes
[18] = Stability in mouse plasma assessed as half life; format: ADME, cell-free
[19] = Stability in rat plasma assessed as half life; format: ADME, cell-free
[20] = Stability in Non human primate plasma assessed as half life; format: ADME, cell-free
[21] = Stability in human plasma assessed as parent compound remaining at […]; format: ADME, cell-free; settings: read-out: Stability
[22] = molecular target: Cytochrome P450 2C9 (Homo sapiens, UniProt P11712); test: Inhibition of CYP2C9 (unknown origin); format: ADME
[23] = system: SU-DHL-1; test: PROTAC activity at STAT5/CRBN in human SU-DHL-1 cells assessed as reduction in STAT5 level upto 40 uM incubated for 20 hrs by Western blot analysis; format: cell-based
[24] = molecular target: T2, Protein cereblon/Signal transducer and activator of transcription 4; test: PROTAC activity at STAT4/CRBN in human SU-DHL-1 cells assessed as reduction in STAT4 level incubated for 20 hrs by Western blot analysis; format: cell-based; settings: dose <= 40.0 µM
[25] = molecular target: T4, Protein cereblon/Signal transducer and activator of transcription 3 (Homo sapiens, UniProt P40763+Q96SW2); test: PROTAC activity at STAT3/CRBN in human MOLM16 cells assessed as reduction in STAT3 level at 340 nM incubated for 4 hrs by Western blot analysis; format: cell-based; parameters: scale not given: the % may be the effect or the level left
[26] = molecular target: T3, Protein cereblon/Signal transducer and activator of transcription 2 (Homo sapiens); test: PROTAC activity at STAT2/CRBN in human MOLM16 cells assessed as reduction in STAT2 level upto 40 uM incubated for 4 hrs by Western blot analysis; format: cell-based
[27] = system: MOLM16; test: PROTAC activity at STAT5/CRBN in human MOLM16 cells assessed as reduction in STAT5 level upto 40 uM incubated for 4 hrs by Western blot analysis; format: cell-based
[28] = molecular target: Protein cereblon/Signal transducer and activator of transcription 1-alpha/beta (Homo sapiens, UniProt P42224+Q96SW2); test: PROTAC activity at STAT1/CRBN in human MOLM16 cells assessed as reduction in STAT1 level at > 8 uM incubated for 4 hrs by Western blot analysis; format: cell-based
[29] = molecular target: T4, Protein cereblon/Signal transducer and activator of transcription 3; test: PROTAC activity at STAT3/CRBN in human Pfeiffer cells transfected with STAT3 K658R mutant assessed as reduction in STAT3 level at 64 nM incubated for 20 hrs by Western blot analysis; format: cell-based; parameters: scale not given: the % may be the effect or the level left
[30] = molecular target: T4, Protein cereblon/Signal transducer and activator of transcription 3; test: PROTAC activity at his-SUMO-tagged STAT3 (127 to 688 residues)/CRBN in human PBMC cells assessed as reduction in STAT3 level upto 40 uM incubated for 20 hrs by Western blot analysis relative to control; format: cell-based; parameters: scale not given: the % may be the effect or the level left
[31] = molecular target: Signal transducer and activator of transcription 3 (Homo sapiens, UniProt P40763); test: Binding affinity to STAT3 (unknown origin) by FP assay
[32] = molecular target: Signal transducer and activator of transcription 1-alpha/beta (Homo sapiens, UniProt P42224); test: Binding affinity to STAT1 (unknown origin) by FP assay
[33] = Drug concentration in female CB17 SCID mouse plasma at 5 mg/kg, iv measured at 3 hrs by LC-MS/MS analysis; format: ADME, organism-based
[34] = Drug concentration in female CB17 SCID mouse plasma at 5 mg/kg, iv measured at 6 hrs by LC-MS/MS analysis; format: ADME, organism-based
[35] = Drug concentration in female CB17 SCID mouse plasma at 5 mg/kg, iv measured at 24 hrs by LC-MS/MS analysis; format: ADME, organism-based
[36] = Drug concentration in female CB17 SCID mouse plasma at 5 mg/kg, iv measured at 48 hrs by LC-MS/MS analysis; format: ADME, organism-based
[37] = Drug concentration in female CB17 SCID mouse liver at 5 mg/kg, iv measured at 3 hrs by LC-MS/MS analysis; format: ADME, organism-based; settings: read-out: Ct
[38] = Drug concentration in female CB17 SCID mouse liver at 5 mg/kg, iv measured at 72 hrs by LC-MS/MS analysis; format: ADME, organism-based; settings: read-out: Ct
[39] = Drug concentration in female CB17 SCID mouse spleen at 5 mg/kg, iv measured at 1 hr by LC-MS/MS analysis; format: ADME, organism-based; settings: read-out: Ct
[40] = Drug concentration in female CB17 SCID mouse spleen at 5 mg/kg, iv measured at 24 hrs by LC-MS/MS analysis; format: ADME, organism-based; settings: read-out: Ct
[41] = Antitumor activity against human MOLM16 cells xenografted in mouse assessed as tumor regression at 5 mg/kg, iv; format: functional, MOLM-16
[42] = Toxicity in mouse at 5 to 20 mg/kg, iv; format: organism-based; settings: in vivo, dose 5-20 mg/kg

COC(=O)N1CC[C@H]2CC[C@@H](C(=O)N[C@@H](CCC(N)=O)C(=O)N[C@@H](Cc3ccc(F)c(F)c3)C(=O)N3CCC(CCC#Cc4cccc5c4CN(C4CCC(=O)NC4=O)C5=O)CC3)N2C(=O)[C@@H](NC(=O)c2cc3cc(C(F)(F)P(=O)(O)O)ccc3s2)C1 (some centres not stated)
Activity [1]: > 90%
Activity [2]: > 90%
Cmax [3]: 130000 ng/mL
AUC(0-t) [4]: 859000 ng·h/mL
Vd [5]: 0.1 L/kg
clearance [6]: 3.06 mL/h/kg
Cmax [7]: 82600 ng/mL
AUC(0-t) [8]: 59500 ng·h/mL
Vd [9]: 0.12 L/kg
AUC(0-t) [10]: 10700 ng·h/mL
Vd [11]: 0.29 L/kg
DC50 [12]: 1.6 µM
Activity [13]: inactive
Activity [14]: inactive
Papp [15]: 0.14 10^-6 cm/s
inhibition at 3 µM [16]: 1.3%
t1/2 [17]: > 2 h
t1/2 [18]: > 2 h
t1/2 [19]: > 2 h
half-life [20]: > 2 h
remaining at 2 h [21]: 75%
IC50 [22]: > 10 µM
Activity [23]: inactive
Activity [24]: Dose-dependent-effect
Activity [25]: 100%
Activity [26]: inactive
Activity [27]: inactive
Activity [28]: Active
Activity [29]: > 90%
Activity [30]: > 95%
IC50 [31]: 0.019 µM
IC50 [32]: 0.27 µM
concentration at 3 h [33]: 31200 ng/mL
concentration at 6 h [34]: 30300 ng/mL
concentration at 24 h [35]: 17100 ng/mL
concentration at 48 h [36]: 12400 ng/mL
concentration at 3 h [37]: 3850 ng/g
concentration at 72 h [38]: 598 ng/g
concentration at 1 h [39]: 2870 ng/g
concentration at 24 h [40]: 868 ng/g
Activity [41]: 76%
Activity [42]: Non-toxic

Source: ChEMBL document CHEMBL6092220 (J Med Chem, 2024)
